Data set [1] concerns human recombinant LSD1-CoREST enzymatic complex. The settings on record: Table S1, cited from earlier work.
The subject of data set [2] is newly transformed schistosomula (NTS). The experiment in a line: NTS viability phenotypic screening, 72 h. The settings on record: for IC50: Schistosoma mansoni, read-out: IC50 (NTS viability).
Description: (§4) For NTS and adult worms, transparent flat-bottom 96- and 24-well plates were used, respectively (Sarstedt, Switzerland). For juvenile worms, 48-well plates were used with 3–6 worms per plate and RPMI medium with 5% FCS and 1% penicillin/streptomycin. Compounds were initially tested at 20 and 10 μM in triplicate on NTS and repeated once; each well contained 30–40 NTS. Phenotypic reference points such as motility, morphology, and granularity were used to score incubated parasites’ overall viability (scores from 0 to 3). […] Identified hits from the NTS screening were tested on adult worms. […] The experiment was conducted in duplicate and repeated; standard deviations were calculated from two wells. […] For all in vitro assays, negative controls (DMSO at the highest tested concentration) were included.
The subject of data set [3] is adult worms. The experiment in a line: Pairing and egg laying of adult worms. Conditions: for eggs' number: 20 μM. The format is cell-based, Schistosoma mansoni. On the procedure: Selected compounds 2, 15, 18, and 19 were tested on adult worms to evaluate their effects on pairing and egg laying.
The nature of data set [4]: MTT cytotoxicity in RPE cells. The format is cell-based. Conditions: human, retinal pigment epithelial (RPE) cells; for viability at 72 h, 5 µM / viability at 72 h, 10 µM / viability at 72 h, 25 µM / viability at 72 h, 50 µM: read-out: percentage of viability, 72 h; for IC50 at 72 h: read-out: IC50 (cell viability). Here is the method: (§1) The MTT method was used to evaluate cell viability after 72 h of treatment.
(§2) Human commercial lung diploid fibroblasts (MRC-5), and diploid retinal epithelium cells (RPE) were obtained from the American Type Culture Collection (ATCC) and kindly provided by Dr Francesca Degrassi (CNR IBPM) and maintained in minimal essential medium or DMEM-F12 medium supplemented with fetal calf serum, antibiotics, and nonessential amino acids. Cells were grown at 37 °C, in a humidified atmosphere, with 5% CO2. For experiments, cells were seeded in 200 μL of complete in each well of a 96-well microtiter plate. After 24 h, compounds were added at 5, 10, 25, and 50 μM for 72 h in sextuplicate. MTT was added (0.5 mg/mL), incubated for 4 h at 37 °C, and dissolved in 200 μL of isopropyl alcohol. Absorbance was measured at 570 nm (ELISA reader, DASIT), and cell viability was calculated as viability=(ODoftreatedcells/ODofcontrolcells)×100

In data set [5] the test system is S. mansoni juvenile forms. As to the kind of experiment: Speed-of-action assay in juvenile forms. The format is cell-based, Schistosoma mansoni. The settings on record: for IC50: Schistosoma mansoni, read-out: IC50 (speed of action, juvenile forms); for Percentage of effect: juvenile forms. An excerpt: (§3) To better characterize a selection of our LSD1i in vitro, we assessed the onset of their action, defined as the time required for an observable antischistosomal effect. […] For detailed percentages of activity at each time point, refer to the Supporting Information (Tables S2 and S3 in Supporting Information).

A further data set concerns NTS. As to the kind of experiment: Speed-of-action assay in NTS. The class given is cell-based, Schistosoma mansoni. Conditions: for Percentage of effect: NTS; for IC50: Schistosoma mansoni, read-out: IC50 (speed of action, NTS).
Description: as §3

Data set [6] is described as follows: MTT cytotoxicity in MRC-5 cells. The settings on record: human, MRC-5 lung diploid fibroblast cells; for viability at 72 h, 5 µM / viability at 72 h, 10 µM / viability at 72 h, 25 µM / viability at 72 h, 50 µM: read-out: percentage of viability, 72 h; for IC50 at 72 h: read-out: IC50 (cell viability). The format is cell-based. Here is the method:
as §1, §2

Data set [7] concerns adult worms. As to the kind of experiment: Adult worm viability phenotypic assay, 72 h. The settings on record: Schistosoma mansoni, read-out: IC50 (adult worm viability).
Description: The life cycle is maintained at the Swiss TPH as described previously. Cercariae were obtained from infected snails by exposing them to a strong light source for 3–4 h in pond water.
as §4
Where [8] appears, read: ref 2 (SI: Fioravanti et al., ChemMedChem 2020).
Where [9] appears, read: ref 3 (SI: Fioravanti et al., J Enzyme Inhib Med Chem 2022).
Where [10] appears, read: ref 4 (SI: Rodriguez et al., MedChemComm 2015).

Molecules are shown by their SMILES. Read-outs that look alike come from different tables or passages of the source.

The values below come from article PMC12340956, “Tranylcypromine-Based LSD1 Inhibitors as Useful Agents to Reduce Viability of” (ACS Infectious Diseases, 2025).

As a reminder, the IC50 is the point on the concentration scale where inhibition reaches its midpoint. For the compound `NC1CC1c1ccc(NC(=O)c2ccc(O)c3ncccc23)cc1` (stereo not drawn) [Compound 1], the IC50 in data set [1] (ref 1 (SI: Rotili et al., J Med Chem 2014)) is less than 1 µM; in data set [2], greater than 20 µM. Besides, the “Percentage of reduction of NTS viability, 72 h” value (“Percentage of reduction … 72 h” below) in data set [2] (10 μM) was determined as 37.9 ± 0.0%; in data set [2] (20 μM), 45.8 ± 4.2%.

The term viability denotes a per cent measure of how many cells are alive, often set against a control. As to `NC1CC1c1ccc(NC(=O)c2ccc(-c3ccccc3)cc2)cc1` (stereo not drawn) [Compound 2], the “eggs' number” value was 0 in the data set on adult worms [3] (4 h); 0 in the data set on adult worms [3] (8 h); 0 with adult worms [3] (24 h); 0 with adult worms [3] (48 h); 6 with adult worms [3] (72 h). In addition, in the data set on adult worms [3] (adult worms), the “effect on worm pairing” value is listed as “no impact on worm pairing”. The results for the viability at 72 h, 5 µM in data set [4] and in data set [6] were 95 ± 9% and 29 ± 2%, respectively. In addition, the results for the viability at 72 h, 10 µM in data set [4] and in data set [6] were 82 ± 11% and 26 ± 3%, respectively. Besides, the viability at 72 h, 25 µM is 87 ± 39% in data set [4] and 13 ± 3% in data set [6]. Moreover, the results for the viability at 72 h, 50 µM in data set [4] and in data set [6] were 49 ± 9% and 10 ± 2%, respectively. For the same compound, the half-inhibitory concentration (IC50) at 72 h in data set [4] is 68.9 µM; in data set [6], 5.9 µM. Moreover, the IC50 in data set [5] (4 h) was greater than 20 µM; in data set [5] (24 h), 16.2 µM; in data set [5] (48 h) it was greater than 20 µM; in data set [5] (72 h), 5.9 µM; in the data set on NTS (4 h) it was greater than 20 µM; with NTS (24 h) it was 5 µM. For the same compound, the half-maximal inhibitory concentration (IC50) was 4 µM in the data set on NTS (48 h); 2.3 µM in the data set on NTS (72 h); 0.05 ± 0.01 µM in data set [1] (setting [8]); 0.26 µM in data set [2]; greater than 10 µM in the data set with adult worms [7]. Besides, the Percentage of effect is 20% in data set [5] (4 h, 1 μM); 23.33% in data set [5] (4 h, 10 μM); 43.64% in data set [5] (4 h, 20 μM); 24.14% in data set [5] (24 h, 1 μM); 37.93% in data set [5] (24 h, 10 μM); 57.69% in data set [5] (24 h, 20 μM). Moreover, the Percentage of effect is 32.69% in data set [5] (48 h, 1 μM); 36.45% in data set [5] (48 h, 10 μM); 56.25% in data set [5] (48 h, 20 μM); 39% in data set [5] (72 h, 1 μM); 39.11% in data set [5] (72 h, 10 μM); 70.83% in data set [5] (72 h, 20 μM). Further, the Percentage of effect with NTS (4 h, 10 μM) is given as 30.77%; in the data set on NTS (4 h, 20 μM) it was 38.46%; with NTS (24 h, 10 μM), 78.57%; in the data set on NTS (24 h, 20 μM) it was 82.14%; in the data set with NTS (48 h, 10 μM), 87.76%; in the data set with NTS (48 h, 20 μM), 93.88%. Further, the Percentage of effect is given as 89.80% with NTS (72 h, 10 μM) and 100% with NTS (72 h, 20 μM). Further, the “Percentage of reduction … 72 h” value in data set [2] (0.1 μM) was 43.7 ± 2.1%; in data set [2] (1 μM), 56.9 ± 0.9%; in data set [2] (10 μM), 98 ± 1.0%; in data set [2] (20 μM) it was 100 ± 0.0%.

As to `NC1CC1c1ccc(NC(=O)c2ccc(-c3ccco3)cc2)cc1` (stereo not drawn) [Compound 3], the figures for the IC50 in data set [1] (setting [9]) and in data set [2] were 2 µM and greater than 20 µM, respectively. The “Percentage of reduction … 72 h” value in data set [2] (10 μM) is 36.2 ± 0.9%; in data set [2] (20 μM), 37.50 ± 0.0%.

For the compound `NC1CC1c1ccc(NC(=O)c2ccc(-c3ccsc3)cc2)cc1` (stereo not drawn) [Compound 4], the IC50 was 0.34 ± 0.11 µM in data set [1] (setting [9]), greater than 10 µM in data set [2] and greater than 10 µM in the data set with adult worms [7]. In addition, the “Percentage of reduction … 72 h” value worked out at 43.1 ± 0.9% in data set [2] (10 μM) and 79.17 ± 0.0% in data set [2] (20 μM).

With `CN1CCN(c2cc(C(=O)Nc3ccc(C4CC4N)cc3)ccc2NC(=O)OCc2ccccc2)CC1` (stereo not drawn) [Compound 5], the viability at 72 h, 5 µM in data set [4] came out at 63 ± 33%; in data set [6], 75 ± 7%. The viability at 72 h, 10 µM in data set [4] came out at 72 ± 18%; in data set [6], 59 ± 5%. Moreover, the results for the viability at 72 h, 25 µM in data set [4] and in data set [6] were 82 ± 11% and 58 ± 2%, respectively. Besides, the viability at 72 h, 50 µM in data set [4] amounted to 57 ± 10%; in data set [6] it was 39 ± 4%. Besides, the 50% inhibitory concentration (IC50) at 72 h in data set [4] stood at 55.8 µM; in data set [6] it was 24.3 µM. Moreover, the half-inhibitory concentration (IC50) in data set [1] (setting [8]) is 0.09 ± 0.01 µM; in data set [2], 1.35 µM; with adult worms [7], 2.23 µM. For the same compound, the results for the “Percentage of reduction … 72 h” value in data set [2] (1 μM), in data set [2] (10 μM) and in data set [2] (20 μM) were 18.0 ± 1.0%, 100 ± 0.0% and 100 ± 0.0%, respectively.

In the case of `NC1CC1c1ccc(NC(=O)c2ccn(C(=O)OCc3ccccc3)c2)cc1` (stereo not drawn) [Compound 6], the figures for the 50% inhibitory concentration (IC50) (in data set [1] (setting [10]); in data set [2]; in the data set on adult worms [7]) were 0.05 ± 0.004 µM, greater than 10 µM and greater than 20 µM, respectively. In addition, the “Percentage of reduction … 72 h” value in data set [2] (10 μM) is listed as 40.0 ± 2.0%; in data set [2] (20 μM), 100 ± 0.0%.

Regarding `NC1CC1c1ccc(NC(=O)c2cc3ccccc3n2CC(=O)Nc2ccccc2)cc1` (stereo not drawn) [Compound 7], the concentration for half-maximal inhibition (IC50) in data set [1] (setting [10]) was 0.09 ± 0.01 µM; in data set [2], greater than 10 µM; in the data set on adult worms [7], greater than 20 µM. Besides, the “Percentage of reduction … 72 h” value in data set [2] (10 μM) was found to be 37.9 ± 0.0%; in data set [2] (20 μM), 66.7 ± 4.2%.

In the case of `NC1CC1c1ccc(NC(=O)Cc2cccc3ccccc23)cc1` (stereo not drawn) [Compound 8], the IC50 in data set [1] (setting [8]) is […]; in data set [2], greater than 10 µM. Further, the results for the “Percentage of reduction … 72 h” value in data set [2] (10 μM) and in data set [2] (20 μM) were 46.5 ± 2.6% and 50.0 ± 0.0%, respectively.

Consider `NC1CC1c1ccc(NC(=O)CNC(=O)OCc2ccccc2)cc1` (stereo not drawn) [Compound 9], for which the IC50 is 0.3 ± 0.03 µM in data set [1] (setting [10]) and greater than 20 µM in data set [2]. Also, the figures for the “Percentage of reduction … 72 h” value in data set [2] (10 μM) and in data set [2] (20 μM) were 37.93 ± 1.7% and 41.7 ± 4.2%, respectively.

`NC1CC1c1ccc(NC(=O)C2CCCN2C(=O)OCc2ccccc2)cc1` (stereo not drawn) [Compound 10]: the IC50 in data set [1] (setting [10]) is 0.06 ± 0.01 µM; in data set [2] it was greater than 20 µM. Also, the “Percentage of reduction … 72 h” value is recorded as 32.8 ± 0.9% in data set [2] (10 μM) and 37.5 ± 4.2% in data set [2] (20 μM).

As for `NC1CC1c1ccc(NC(=O)C(Cc2ccccc2)NC(=O)OCc2ccccc2)cc1` (stereo not drawn) [Compound 11, benzyl (1-((4-(2-aminocyclopropyl)phenyl)amino)-1-oxo-3-phenylpropan-2-yl)carbamate], the IC50 in the data set on adult worms [7] is greater than 20 µM.

In the case of `NC1CC1c1ccc(NC(=O)C(Cc2c[nH]c3ccccc23)NC(=O)OCc2ccccc2)cc1` (stereo not drawn) [Compound 12], the 50% inhibitory concentration (IC50) in data set [1] (setting [8]) is 0.19 ± 0.03 µM; in data set [2], greater than 10 µM. Also, the “Percentage of reduction … 72 h” value in data set [2] (10 μM) turned out to be 41.4 ± 1.7%; in data set [2] (20 μM) it was 50.0 ± 0.0%.

As for `NC1CC1c1ccc(NC(=O)C(Cc2csc3ccccc23)NC(=O)OCc2ccccc2)cc1` (stereo not drawn) [Compound 13], the IC50 in data set [1] (setting [8]) is 0.08 ± 0.01 µM; in data set [2] it was greater than 10 µM. Moreover, the “Percentage of reduction … 72 h” value was 36.2 ± 0.9% in data set [2] (10 μM) and 50.0 ± 4.2% in data set [2] (20 μM).
